Measured values: patent US9580430B2, “9H-pyrimido[4,5-B]indoles and related analogs as BET bromodomain inhibitors” (THE REGENTS OF THE UNIVERSITY OF MICHIGAN, priority 2014, dated 2017)

Assays:
MOLM-13 = experiment: Cell growth inhibition, MOLM-13 leukemia cells (CellTiter-Glo); type: cell-based; conditions: Homo sapiens, MOLM-13, 96 h; 4 days; read-out: IC50 (nM) MOLM-13 Cell Line (CellTiter-Glo assay)
Method in brief: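 MOLM-13 leukemia cells treated with compounds; viability read by CellTiter-Glo luminescence after 10-20 min reagent incubation at room temperature. IC50 derived from luminescent signal.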

recombinant BRD4 BD1 = biological target: T1, recombinant BRD4 BD1 (Homo sapiens, UniProt O60885); experiment: Competitive fluorescence-polarization (FP) binding assay, BRD4 BD1; conditions: competitive FP assay; protein 10 nM, probe […]; read-out: IC50 (nM) BRD4 BD1; note: probe 1.5 nM
T1 construct: for recombinant BRD4 BD1 and BRD4 BD2 proteins
Method in brief: (§1)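 FP competition with FAM-labelled probe (ZBA248 or BRD-1F) against preincubated protein/probe complex; BD1 at 10 nM and BD2 at 6 nM final, in 100 mM potassium phosphate pH 6.5, 0.01% Triton X-100. 30 min, room temperature. IC50 by nonlinear regression; Ki also derived, using probe Kd from protein saturation.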

recombinant BRD4 BD2 = biological target: T2, recombinant BRD4 BD2 (Homo sapiens, UniProt O60885); experiment: Competitive fluorescence-polarization (FP) binding assay, BRD4 BD2; conditions: competitive FP assay; protein 6 nM, probe […]; read-out: IC50 (nM) BRD4 BD2; note: probe 1.5 nM
T2 construct: for recombinant BRD4 BD1 and BRD4 BD2 proteins
Method in brief: as §1

MDA-MB-436 = experiment: Cell growth inhibition, MDA-MB-436 breast cancer cells (WST-8); type: cell-based; conditions: Homo sapiens, MDA-MB-436, 96 h; 4 days; read-out: IC50 (nM) MDA-MB-436 Cell Line (WST assay)
Method in brief: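 IC50 was computed from WST-8-based cell counting in MDA-MB-436 cells, with absorbance read at 450 nm.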

Which IC50 (MOLM-13) does the source give for `COc1cc2c(cc1-c1c(C)noc1C)[nH]c1nc(C)nc(Nc3cc(C)nn3-c3cccc(Cl)c3)c12` [Cpd. No. 7, N-(1-(3-Chlorophenyl)-3-methyl-1H-pyrazol-5-yl)-7-(3,5-dimethylisoxazol-4-yl)-6-methoxy-2-methyl-9H-pyrimido[4,5-b]indol-4-amine] here?
Its IC50 is 56.3 nM.

What about the IC50 (recombinant BRD4 BD1) of the same compound?
Its IC50 is 365 nM.

And the IC50 (recombinant BRD4 BD2)?
The IC50 was 198 nM.

And the IC50 (MDA-MB-436)?
The IC50 was 142 nM.

What does the source list for `COc1cc2c(cc1-c1c(C)noc1C)[nH]c1nc(C)nc(Nc3ccccc3)c12` [Cpd. No. 226, 7-(3,5-dimethylisoxazol-4-yl)-6-methoxy-2-methyl-N-phenyl-9H-pyrimido[4,5-b]indol-4-amine]?
IC50 (MOLM-13): 94 nM; IC50 (recombinant BRD4 BD1): 21 nM; IC50 (recombinant BRD4 BD2): 20 nM; IC50 (MDA-MB-436): 91 nM

`COc1cc2c(cc1-c1c(C)noc1C)[nH]c1nc(C)nc(Nc3cccc4ncsc34)c12` [Cpd. No. 229, N-(7-(3,5-dimethylisoxazol-4-yl)-6-methoxy-2-methyl-9H-pyrimido[4,5-b]indol-4-yl)benzo[d]thiazol-7-amine] was tested. Which IC50 (MOLM-13) did it give?
The IC50 was 69 nM.

And the IC50 (recombinant BRD4 BD1)?
Its IC50 is 24 nM.

And the IC50 (recombinant BRD4 BD2)?
Its IC50 is 22 nM.

And the IC50 (MDA-MB-436)?
The IC50 was 88 nM.

`COc1cc2c(cc1-c1c(C)noc1C)[nH]c1nc(C)nc(Nc3cnn4c3CCC4)c12` [Cpd. No. 134, N-(5,6-Dihydro-4H-pyrrolo[1,2-b]pyrazol-3-yl)-7-(3,5-dimethylisoxazol-4-yl)-6-methoxy-2-methyl-9H-pyrimido[4,5-b]indol-4-amine] was tested. Which IC50 (MOLM-13) did it give?
The IC50 was 32 nM.

And the IC50 (recombinant BRD4 BD1)?
Its IC50 is 40.2 nM.

And the IC50 (recombinant BRD4 BD2)?
Its IC50 is 30.5 nM.

And the IC50 (MDA-MB-436)?
Its IC50 is 128 nM.

With `COc1cc2c(cc1-c1c(C)noc1C)[nH]c1nc(C)nc(NC3CCCC3)c12` [Cpd. No. 113, N-cyclopentyl-7-(3,5-dimethylisoxazol-4-yl)-6-methoxy-2-methyl-9H-pyrimido[4,5-b]indol-4-amine] as the compound, how does the IC50 (MOLM-13) read?
Its IC50 is 853 nM.

What about the IC50 (recombinant BRD4 BD1) of the same compound?
Its IC50 is 582 nM.

And the IC50 (recombinant BRD4 BD2)?
The IC50 was 564 nM.

What about the IC50 (MDA-MB-436) of the same compound?
The IC50 was 1100 nM.

`COc1cc2c(cc1-c1c(C)noc1C)[nH]c1nc(C)nc(Nc3cnn4ccccc34)c12` [Cpd. No. 14, 7-(3,5-Dimethylisoxazol-4-yl)-6-methoxy-2-methyl-N-(pyrazolo[1,5-a]pyridin-3-yl)-9H-pyrimido[4,5-b]indol-4-amine] was tested. Which IC50 (MOLM-13) did it give?
The IC50 was 23.7 nM.

And the IC50 (recombinant BRD4 BD1)?
The IC50 was 14.6 nM.

What about the IC50 (recombinant BRD4 BD2) of the same compound?
The IC50 was 22.6 nM.

And the IC50 (MDA-MB-436)?
The IC50 was 83.3 nM.

With `COc1cc2c(cc1-c1c(C)noc1C)[nH]c1nc(C)nc(Nc3c(C)c(C)nn3C3CCC3)c12` [Cpd. No. 187, N-(1-cyclobutyl-3,4-dimethyl-1H-pyrazol-5-yl)-7-(3,5-dimethylisoxazol-4-yl)-6-methoxy-2-methyl-9H-pyrimido[4,5-b]indol-4-amine] as the compound, how does the IC50 (MOLM-13) read?
The IC50 was 38.8 nM.

What about the IC50 (recombinant BRD4 BD1) of the same compound?
The IC50 was 10.5 nM.

And the IC50 (recombinant BRD4 BD2)?
Its IC50 is 10.9 nM.

What about the IC50 (MDA-MB-436) of the same compound?
Its IC50 is 121 nM.

`CCc1cccc(Nc2nc(C)nc3[nH]c4cc(-c5c(C)noc5C)c(OC)cc4c23)c1` [Cpd. No. 216, 7-(3,5-dimethylisoxazol-4-yl)-N-(3-ethylphenyl)-6-methoxy-2-methyl-9H-pyrimido[4,5-b]indol-4-amine] was tested. Which IC50 (MOLM-13) did it give?
Its IC50 is 220 nM.

And the IC50 (recombinant BRD4 BD1)?
Its IC50 is 19 nM.

What about the IC50 (recombinant BRD4 BD2) of the same compound?
The IC50 was 35 nM.

And the IC50 (MDA-MB-436)?
The IC50 was 292 nM.

`COc1cc2c(cc1-c1c(C)noc1C)[nH]c1nc(C)nc(Nc3cc(C(F)(F)F)nn3C(C)C)c12` [Cpd. No. 22, 7-(3,5-Dimethylisoxazol-4-yl)-N-(1-isopropyl-3-(trifluoromethyl)-1H-pyrazol-5-yl)-6-methoxy-2-methyl-9H-pyrimido[4,5-b]indol-4-amine] was tested. Which IC50 (MOLM-13) did it give?
The IC50 was 77.5 nM.

And the IC50 (recombinant BRD4 BD1)?
Its IC50 is 49.1 nM.

And the IC50 (recombinant BRD4 BD2)?
Its IC50 is 40.6 nM.

What about the IC50 (MDA-MB-436) of the same compound?
Its IC50 is 84.8 nM.

How did the IC50 (MOLM-13) turn out when `COc1cc2c(cc1-c1c(C)noc1C)[nH]c1nc(C)nc(Nc3c(C)c(C)nn3C3CC3)c12` [Cpd. No. 188, N-(1-cyclopropyl-3,4-dimethyl-1H-pyrazol-5-yl)-7-(3,5-dimethylisoxazol-4-yl)-6-methoxy-2-methyl-9H-pyrimido[4,5-b]indol-4-amine] was run?
Its IC50 is 3.2 nM.

And the IC50 (recombinant BRD4 BD1)?
The IC50 was 2.1 nM.

What about the IC50 (recombinant BRD4 BD2) of the same compound?
Its IC50 is 3.7 nM.

And the IC50 (MDA-MB-436)?
The IC50 was 12.8 nM.

For `COc1cc2c(cc1-c1c(C)noc1C)[nH]c1nc(C)nc(Nc3nnc4ccccn34)c12` [compound 101, N-([1,2,4]triazolo[4,3-a]pyridin-3-yl)-7-(3,5-dimethylisoxazol-4-yl)-6-methoxy-2-methyl-9H-pyrimido[4,5-b]indol-4-amine], which IC50 (MOLM-13) is on record?
Its IC50 is 266 nM.

And the IC50 (recombinant BRD4 BD1)?
Its IC50 is 978 nM.

What about the IC50 (recombinant BRD4 BD2) of the same compound?
Its IC50 is 786 nM.

What about the IC50 (MDA-MB-436) of the same compound?
Its IC50 is 811 nM.

Which IC50 (MOLM-13) does the source give for `COc1cc2c(cc1-c1c(C)noc1C)[nH]c1nc(C)nc(Nc3ccnn3C)c12` [Cpd. No. 172, 7-(3,5-dimethylisoxazol-4-yl)-6-methoxy-2-methyl-N-(1-methyl-1H-pyrazol-5-yl)-9H-pyrimido[4,5-b]indol-4-amine] here?
The IC50 was 453 nM.

What about the IC50 (recombinant BRD4 BD1) of the same compound?
Its IC50 is 57.2 nM.

What about the IC50 (recombinant BRD4 BD2) of the same compound?
Its IC50 is 49.5 nM.

And the IC50 (MDA-MB-436)?
The IC50 was 634 nM.

Which results are given for `COc1cc2c(cc1-c1c(C)noc1C)[nH]c1nc(C)nc(Nc3scnc3C(C)(C)C)c12` [Cpd. No. 33, 4-(tert-butyl)-N-(7-(3,5-dimethylisoxazol-4-yl)-6-methoxy-2-methyl-9H-pyrimido[4,5-b]indol-4-yl)thiazol-5-amine]?
IC50 (MOLM-13): 2420 nM; IC50 (recombinant BRD4 BD1): 24.5 nM; IC50 (recombinant BRD4 BD2): 21.5 nM; IC50 (MDA-MB-436): 303 nM

With `COc1cc2c(cc1-c1c(C)noc1C)[nH]c1nc(C)nc(Nc3cn(C)cn3)c12` [Cpd. No. 166, 7-(3,5-dimethylisoxazol-4-yl)-6-methoxy-2-methyl-N-(1-methyl-1H-imidazol-4-yl)-9H-pyrimido[4,5-b]indol-4-amine] as the compound, how does the IC50 (MOLM-13) read?
The IC50 was 504 nM.

And the IC50 (recombinant BRD4 BD1)?
The IC50 was 119 nM.

And the IC50 (recombinant BRD4 BD2)?
The IC50 was 161 nM.

What about the IC50 (MDA-MB-436) of the same compound?
Its IC50 is 1420 nM.

Which results are given for `COc1cc2c(cc1-c1c(C)noc1C)[nH]c1nc(C)nc(Nc3ccnn3C3CCCC3)c12` [Cpd. No. 178, N-(1-cyclopentyl-1H-pyrazol-5-yl)-7-(3,5-dimethylisoxazol-4-yl)-6-methoxy-2-methyl-9H-pyrimido[4,5-b]indol-4-amine]?
IC50 (MOLM-13): 22.5 nM; IC50 (recombinant BRD4 BD1): 9 nM; IC50 (recombinant BRD4 BD2): 0.6 nM; IC50 (MDA-MB-436): 52.9 nM

Which results are given for `COc1cc2c(cc1-c1c(C)noc1C)[nH]c1nc(C)nc(Nc3c4c(nn3C(C)C)CCCC4)c12` [Cpd. No. 138, 7-(3,5-Dimethylisoxazol-4-yl)-N-(2-isopropyl-4,5,6,7-tetrahydro-2H-indazol-3-yl)-6-methoxy-2-methyl-9H-pyrimido[4,5-b]indol-4-amine]?
IC50 (MOLM-13): 5.7 nM; IC50 (recombinant BRD4 BD1): 4.2 nM; IC50 (recombinant BRD4 BD2): 1.2 nM; IC50 (MDA-MB-436): 30.3 nM

With `COc1cc2c(cc1-c1c(C)noc1C)[nH]c1nc(C)nc(Nc3ccc(OC)c4ccccc34)c12` [Cpd. No. 100, 7-(3,5-dimethylisoxazol-4-yl)-6-methoxy-N-(4-methoxynaphthalen-1-yl)-2-methyl-9H-pyrimido[4,5-b]indol-4-amine] as the compound, how does the IC50 (MOLM-13) read?
Its IC50 is 147 nM.

And the IC50 (recombinant BRD4 BD1)?
The IC50 was 99 nM.

What about the IC50 (recombinant BRD4 BD2) of the same compound?
The IC50 was 89 nM.

What about the IC50 (MDA-MB-436) of the same compound?
Its IC50 is 235 nM.

What does the source list for `COc1cc2c(cc1-c1c(C)noc1C)[nH]c1nc(C)nc(Nc3c(C)cnn3C(C)(C)C)c12` [Cpd. No. 196, N-(1-(tert-butyl)-4-methyl-1H-pyrazol-5-yl)-7-(3,5-dimethylisoxazol-4-yl)-6-methoxy-2-methyl-9H-pyrimido[4,5-b]indol-4-amine]?
IC50 (MOLM-13): 32.7 nM; IC50 (recombinant BRD4 BD1): 10 nM; IC50 (recombinant BRD4 BD2): 7.5 nM; IC50 (MDA-MB-436): 52.5 nM

With `COc1cc2c(cc1-c1c(C)noc1C)[nH]c1nc(C)nc(Nc3cccc4c3cnn4C)c12` [Cpd. No. 235, 7-(3,5-dimethylisoxazol-4-yl)-6-methoxy-2-methyl-N-(1-methyl-1H-indazol-4-yl)-9H-pyrimido[4,5-b]indol-4-amine] as the compound, how does the IC50 (MOLM-13) read?
The IC50 was 74 nM.

And the IC50 (recombinant BRD4 BD1)?
Its IC50 is 41 nM.

And the IC50 (recombinant BRD4 BD2)?
The IC50 was 52 nM.

And the IC50 (MDA-MB-436)?
Its IC50 is 146 nM.
